Literature values, collected in US6284845A, “Low temperature cure carboxyl terminated polyesters” (McWhorter Technologies, priority 1999, dated 2001).

How the values were obtained:
[1] = tested on: guinea pig
[2] = tested on: rabbit
[3] = tested on: rat
[4] = tested on: rabbit; remark: listed apart in the source

Compound	Primary skin irritation [1]	Primary eye irritation [2]	Acute oral toxicity LD50 [3] [mg/kg]	Primary skin irritation [4]
O=C(CCCCC(=O)N(CCO)CCO)N(CCO)CCO [Primid XL-552, N,N,N',N'-Tetrakis (2-hydroxyethyl) adipamide]	not irritating	not irritating	> 5000	–
CC(O)CN(CC(C)O)C(=O)CCCCC(=O)N(CC(C)O)CC(C)O (stereo not drawn) [Primid QM-1260, N,N,N',N'-Tetrakis (2-hydroxypropyl) adipamide]	–	not irritating	> 2000	not irritating
